The results in this text go back to patent US6989435B2, “Compounds and methods to inhibit or augment an inflammatory response” (Cambridge University Technical Services Ltd., priority 1997, dated 2006).

Test [1] has as its system T-tropic HIV isolate. The test can be described thus: HIV infection of Jurkat cells, reverse transcriptase assay of culture medium. It is filed as cell-based. Conditions: 100 μM peptide; 3 weeks in culture. As to the method:
Peptides were added on day 0, one hour prior to infection of the cells with HIV isolate. The full length chemokine SDF-1α was used as a positive control.
(SEQ ID NO:1), or (iv) 100 ng/ml SDF-1, which should bind to and block all CXCR-4 receptors. After 3 weeks in culture, viral replication was assessed by a reverse transcriptase assay of the culture medium. Peptide 3(1-12)[MCP-1]
Since peptide 2(1-15)[MCP1] […] (SEQ ID NO:3) binds and inhibits an epitope used by HIV for cell entry but not by MCP-1 for signaling. To test this hypothesis, the same HIV infection assay described above was employed to test whether peptide 2(1-15)[MCP-1] (SEQ ID NO:3) inhibits HIV infection of Jurkat cells. At 100 μM, peptide 2(1-15)[MCP-1]

Test [2] relates to TGFβ1 induced THP-1 migration. The test can be described thus: Trans-well THP-1 migration assay, TGFβ1 as non-chemokine control chemoattractant. Format: cell-based, human. As to the method: Any method suitable for counting cells can be used, for example, counting with a hemocytometer, incubation of the cells with MTT (see above), or FACS analysis. A negative control assay is also performed, using TGF-β or another non-chemokine chemoattractant (e.g., IL1β or TNFα). To assess whether the agent is cytotoxic, the same concentrations of agent are incubated with THP-1 cells. Agents which 1) are not cytotoxic at levels which inhibit migration, 2) are ineffective at inhibiting the negative control-induced migration, and 3) reduce or inhibit chemokine-induced THP-1 migration, are agents which fall within the scope of the invention.
For this assay, THP-1 cells were maintained at a density of 4×10^5 cells per ml in RPMI-1640 supplemented with 10% fetal calf serum+20 μM 2-mercaptoethanol. Chemotaxis was induced in a 96-well disposable chemotaxis chamber fitted with a […] polycarbonate filter (PVP free, ChemoTX, Neuroprobe Inc., Cabin John). Twenty-nine μl of chemoattractant (recombinant human chemokine; 50 ng/ml, i.e., 5.9 nM) or control (100 ng/ml TGFβ) was added to the lower compartment of each well. The framed filter was aligned with the holes in the corner of the filter frame and placed over the wells. Five×10^4 THP-1 cells in 25 μl of RPMI-1640 culture media were added to the upper compartment. Peptides were dissolved in Milli Q water and then serially diluted in culture medium. […]
After incubation, the cells were gently removed from the top of the filter with a pipette, 20 μl of 20 mM EDTA in PBS was added into each top well, and the mixture was incubated for 20 minutes at 4° C. […] A standard curve was prepared to accurately quantify the number of THP-1 cells that had migrated. […] Absorbance of converted dye was measured at a wavelength of 595 nm using an ELISA plate reader. The number of cells that had migrated in each well was determined by interpolation of the standard curve.
To investigate the receptor specificity of peptide 3 inhibition, the ED50 was determined for peptide 3(1-12)[MCP-1] […]

Take EICADPKQKWVQ [Peptide 3]: the “inhibition of Jurkat cell infection by HIV” value in test [1] was “effective inhibitor”. Also, the “Extent of inhibition of THP-1 migration at 100 μM, TGFβ1” value in test [2] (Table 4(b), 100 μM peptide, n.s. = no statistically significant inhibition) is given as “n.s”. Besides, in test [2] (even at 100 μM), the “inhibition of TGF-beta induced THP-1 migration” value is “did not significantly inhibit”.
